Experimental data as given in patent US20210355104A1, “ADENOSINE RECEPTOR BINDING COMPOUNDS” (Nikang Therapeuticsm Inc., priority 2018, published 2021).
Where “and” joins values, the source holds several entries; their conditions need not be identical. Identical values can stand only once.

Assays:
Adenosine A2A receptor [1] = biological target: T1, Adenosine A2A receptor (Homo sapiens, UniProt P29274); assay: Adenosine A2A receptor competitive binding assay (Tag-lite HTRF); settings: Tag-lite adenosine A2A receptor ligand binding
T1 sequence (P29274 whole entry): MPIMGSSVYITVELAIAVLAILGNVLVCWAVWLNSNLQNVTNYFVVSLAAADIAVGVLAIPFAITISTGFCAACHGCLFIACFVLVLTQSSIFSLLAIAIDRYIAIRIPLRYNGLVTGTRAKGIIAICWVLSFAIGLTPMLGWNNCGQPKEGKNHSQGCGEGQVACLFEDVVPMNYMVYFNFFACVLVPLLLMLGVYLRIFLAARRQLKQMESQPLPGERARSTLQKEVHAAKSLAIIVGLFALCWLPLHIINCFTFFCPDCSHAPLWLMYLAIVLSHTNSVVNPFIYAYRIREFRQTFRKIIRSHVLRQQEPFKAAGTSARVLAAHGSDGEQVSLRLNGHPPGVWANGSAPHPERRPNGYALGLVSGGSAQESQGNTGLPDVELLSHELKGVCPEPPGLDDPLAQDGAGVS
How it was run: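 Compound displacement of a red fluorescent antagonist tracer (added at 60 nM stock) from donor-labelled, pre-transfected human A2A cells was read by HTRF after 2 h at room temperature; compound dilutions contained 0.6% DMSO.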

Adenosine A2A receptor [2] = biological target: T1, Adenosine A2A receptor; assay: cAMP assay in 293A cells stably expressing the adenosine A2A receptor (CGS21680 stimulation, HTRF); assay type: cell-based; design: expressed in transfected cells; host or cells: 293A cells (Invitrogen, Cat# R705-07) infected with A2A-expressing lentivirus (custom packaged by Biosettia), puromycin selected; settings: 293A-A2AR cells, 0.1% BSA
[3] = 2 h room temperature, values separated by / are repeat determinations
[4] = 8 nM CGS, values separated by / are repeat determinations, read-out: cAMP (nM) 0.1% BSA, 8 nM CGS
[5] = 1 uM CGS, values separated by / are repeat determinations, read-out: cAMP (nM) 0.1% BSA, 1 uM CGS
[6] = 8 nM CGS, read-out: cAMP (nM) 0.1% BSA, 8 nM CGS
[7] = 1 uM CGS, read-out: cAMP (nM) 0.1% BSA, 1 uM CGS

Row | Compound | IC50 (Adenosine A2A receptor [1]; [3]) | IC50 (Adenosine A2A receptor [2]; [4]) | IC50 (Adenosine A2A receptor [2]; [5]) | IC50 (Adenosine A2A receptor [1]; HTRF) | IC50 (Adenosine A2A receptor [2]; [6]) | IC50 (Adenosine A2A receptor [2]; [7]) [nM]
1 | Cc1cc(-c2c(OCc3nccn3CC(C)C)nc(N)nc2-c2ccc(F)cc2)cc(C(F)F)n1 [Example 176, 5-(2-(difluoromethyl)-6-methylpyridin-4-yl)-4-(4-fluorophenyl)-6-((1-isobutyl-1H-imidazol-2-yl)methoxy)pyrimidin-2-amine] | 3.6 nM | 7.9 nM |  |  |  | 
2 | Cc1cc(-c2c(OCc3nccn3CC3CC3)nc(N)nc2-c2ccc(F)cc2)cc(C(F)F)n1 [Example 177, 4-((1-(cyclopropylmethyl)-1H-imidazol-2-yl)methoxy)-5-(2-(difluoromethyl)-6-methylpyridin-4-yl)-6-(4-fluorophenyl)pyrimidin-2-amine] | 0.2 nM | 2.6 nM and 2.9 nM | 271 nM |  |  | 
3 | Cc1cc(-c2c(OCc3nncn3C(C)C)nc(N)nc2-c2ccc(F)cc2)cc(C(F)F)n1 [Example 178, 5-(2-(difluoromethyl)-6-methylpyridin-4-yl)-4-(4-fluorophenyl)-6-((4-isopropyl-4H-1,2,4-triazol-3-yl)methoxy)pyrimidin-2-amine] | 1.4 nM and 3.2 nM | 1.5 nM |  |  |  | 
4 | Cc1cc(-c2c(OCc3ncnn3C(C)C)nc(N)nc2-c2ccc(F)cc2)cc(C(F)F)n1 [Example 179, 5-(2-(difluoromethyl)-6-methylpyridin-4-yl)-4-(4-fluorophenyl)-6-((1-isopropyl-1H-1,2,4-triazol-5-yl)methoxy)pyrimidin-2-amine] | 0.7 nM and 1 nM | 2.9 nM | 16 nM and 57 nM |  |  | 
5 | Cc1cc(-c2c(OCc3cnnn3C(C)C)nc(N)nc2-c2ccc(F)cc2)cc(C(F)F)n1 [Example 180, 5-(2-(difluoromethyl)-6-methylpyridin-4-yl)-4-(4-fluorophenyl)-6-((1-isopropyl-1H-1,2,3-triazol-5-yl)methoxy)pyrimidin-2-amine] | 15 nM | 2.5 nM |  |  |  | 
6 | Cc1cc(-c2c(OCc3n[nH]cc3C(C)C)nc(N)nc2-c2ccc(F)cc2)cc(C(F)F)n1 [Example 183, 5-(2-(difluoromethyl)-6-methylpyridin-4-yl)-4-(4-fluorophenyl)-6-((4-isopropyl-1H-pyrazol-3-yl)methoxy)pyrimidin-2-amine] | 46 nM | 12 nM |  |  |  | 
7 | Cc1cc(-c2c(OCc3nn(C)cc3C(C)C)nc(N)nc2-c2ccc(F)cc2)cc(C(F)F)n1 [Example 184, 5-(2-(difluoromethyl)-6-methylpyridin-4-yl)-4-(4-fluorophenyl)-6-((4-isopropyl-1-methyl-1H-pyrazol-3-yl)methoxy)pyrimidin-2-amine] | 33 nM | 8.8 nM |  |  |  | 
8 | Cc1cc(-c2c(OCc3nnn(C(C)C)n3)nc(N)nc2-c2ccc(F)cc2)cc(C(F)F)n1 [Example 185, 5-(2-(difluoromethyl)-6-methylpyridin-4-yl)-4-(4-fluorophenyl)-6-((2-isopropyl-2H-tetrazol-5-yl)methoxy)pyrimidin-2-amine] | 7.1 nM |  | 6 nM and 25 nM |  |  | 
9 | Cc1cc(-c2c(OCc3cccc(=O)n3C(C)C)nc(N)nc2-c2ccc(F)cc2)cc(C(F)F)n1 [Example 186, 6-(((2-amino-5-(2-(difluoromethyl)-6-methylpyridin-4-yl)-6-(4-fluorophenyl)pyrimidin-4-yl)oxy)methyl)-1-isopropylpyridin-2(1H)-one] | 2.6 nM | 4.1 nM | 10500 nM |  |  | 
10 | Cc1cc(-c2c(OCc3ncc(C#N)n3C(C)C)nc(N)nc2-c2ccc(F)cc2)cc(C(F)F)n1 [Example 191, 2-(((2-amino-5-(2-(difluoromethyl)-6-methylpyridin-4-yl)-6-(4-fluorophenyl)pyrimidin-4-yl)oxy)methyl)-1-isopropyl-1H-imidazole-5-carbonitrile] | 39 nM | 12 nM |  |  |  | 
11 | Cc1cc(-c2c(OCc3ncc(S(C)(=O)=O)n3C(C)C)nc(N)nc2-c2ccc(F)cc2)cc(C(F)F)n1 [Example 192, 5-(2-(difluoromethyl)-6-methylpyridin-4-yl)-4-(4-fluorophenyl)-6-((1-isopropyl-5-(methylsulfonyl)-1H-imidazol-2-yl)methoxy)pyrimidin-2-amine] | 26 nM | 9.7 nM |  |  |  | 
12 | Cc1cc(-c2c(OCc3nccn3C3CCC3)nc(N)nc2-c2ccc(F)cc2)cc(C(F)F)n1 [Example 194, 4-((1-cyclobutyl-1H-imidazol-2-yl)methoxy)-5-(2-(difluoromethyl)-6-methylpyridin-4-yl)-6-(4-fluorophenyl)pyrimidin-2-amine] | 0.6 nM and 1.7 nM | 1.5 nM | 151 nM |  |  | 
13 | Cc1cc(-c2c(OCC3CCC(C)(O)CC3)nc(N)nc2-c2ccc(F)cc2)cc(C(F)F)n1 (stereo not drawn) [Example 197, 4-(((2-amino-5-(2-(difluoromethyl)-6-methylpyridin-4-yl)-6-(4-fluorophenyl)pyrimidin-4-yl)oxy)methyl)-1-methylcyclohexan-1-ol] |  |  |  | 19.1 nM | 6.3 nM | 
14 | CCN(CC(C)O)C(=O)COc1nc(N)nc(-c2ccc(F)cc2)c1-c1cc(C)nc(C(F)F)c1 (stereo not drawn) [Example 198, 2-((2-amino-5-(2-(difluoromethyl)-6-methylpyridin-4-yl)-6-(4-fluorophenyl)pyrimidin-4-yl)oxy)-N-ethyl-N-(2-hydroxypropyl)acetamide] |  |  |  | 14.9 nM | 10 nM | 
15 | Cc1cc(-c2c(OCC(CO)N(C)c3ccccn3)nc(N)nc2-c2ccc(F)cc2)cc(C(F)F)n1 (stereo not drawn) [Example 199, 3-((2-amino-5-(2-(difluoromethyl)-6-methylpyridin-4-yl)-6-(4-fluorophenyl)pyrimidin-4-yl)oxy)-2-(methyl(pyridin-2-yl)amino)propan-1-ol] |  |  |  | 7.2 nM |  | 148
16 | Cc1cc(-c2c(OCC(O)CN(C)c3ccccn3)nc(N)nc2-c2ccc(F)cc2)cc(C(F)F)n1 (stereo not drawn) [Example 201, 1-((2-amino-5-(2-(difluoromethyl)-6-methylpyridin-4-yl)-6-(4-fluorophenyl)pyrimidin-4-yl)oxy)-3-(methyl(pyridin-2-yl)amino)propan-2-ol] |  |  |  | 1 nM and 6.5 nM | 4.2 nM and 3.5 nM | 

The next lines start with the values.

Row | IC50 (Adenosine A2A receptor [1]; [3]) | IC50 (Adenosine A2A receptor [2]; [4]) | IC50 (Adenosine A2A receptor [2]; [5]) | IC50 (Adenosine A2A receptor [1]; HTRF) | IC50 (Adenosine A2A receptor [2]; [6]) | IC50 (Adenosine A2A receptor [2]; [7]) [nM] | Compound
17 |  |  |  | 3.5 nM | 16 nM |  | CCc1nnn(CC)c1COc1nc(N)nc(-c2ccc(F)cc2)c1-c1cc(C)nc(C(F)F)c1 [Example 202, 4-((1,4-diethyl-1H-1,2,3-triazol-5-yl)methoxy)-5-(2-(difluoromethyl)-6-methylpyridin-4-yl)-6-(4-fluorophenyl)pyrimidin-2-amine]
18 |  |  |  | 3 nM | 9.6 nM |  | Cc1cc(-c2c(OCc3nc(C#N)cn3C(C)C)nc(N)nc2-c2ccc(F)cc2)cc(C(F)F)n1 [Example 203]
19 |  |  |  | 12 nM | 29 nM |  | Cc1cc(-c2c(OCc3nccn3C(C)C(=O)O)nc(N)nc2-c2ccc(F)cc2)cc(C(F)F)n1 (stereo not drawn) [Example 205, 2-(2-(((2-amino-5-(2-(difluoromethyl)-6-methylpyridin-4-yl)-6-(4-fluorophenyl)pyrimidin-4-yl)oxy)methyl)-1H-imidazol-1-yl)propanoic acid]
20 |  |  |  | 9.2 nM | 10 nM | 4660 | Cc1cc(-c2c(O)nc(N)nc2-c2ccc(F)cc2)cc(C(F)F)n1 [Example 206, 2-amino-5-(2-(difluoromethyl)-6-methylpyridin-4-yl)-6-(4-fluorophenyl)pyrimidin-4-ol]
21 |  |  |  | 28 nM | 29 nM |  | Cc1cc(-c2c(OCc3nccn3CC(C)C(=O)O)nc(N)nc2-c2ccc(F)cc2)cc(C(F)F)n1 (stereo not drawn) [Example 207, 3-(2-(((2-amino-5-(2-(difluoromethyl)-6-methylpyridin-4-yl)-6-(4-fluorophenyl)pyrimidin-4-yl)oxy)methyl)-1H-imidazol-1-yl)-2-methylpropanoic acid]
22 |  |  |  | 3.4 nM | 1.4 nM and 1 nM | 394 | Cc1cc(-c2c(OCc3cn(C(C)C)nn3)nc(N)nc2-c2ccc(F)cc2)cc(C(F)F)n1 [Example 208, 5-(2-(difluoromethyl)-6-methylpyridin-4-yl)-4-(4-fluorophenyl)-6-((1-isopropyl-1H-1,2,3-triazol-4-yl)methoxy)pyrimidin-2-amine]
23 |  |  |  | 3.4 nM and 5.4 nM | 3.7 nM and 5.4 nM | 2250 | Cc1cc(-c2c(OCc3nccn3C3CC(O)C3)nc(N)nc2-c2ccc(F)cc2)cc(C(F)F)n1 (stereo not drawn) [Example 210, 3-(2-(((2-amino-5-(2-(difluoromethyl)-6-methylpyridin-4-yl)-6-(4-fluorophenyl)pyrimidin-4-yl)oxy)methyl)-1H-imidazol-1-yl)cyclobutan-1-ol]
24 |  |  |  | 47 nM | 7.3 nM |  | Cc1cc(-c2c(OCc3nc(S(C)(=O)=O)cn3C(C)C)nc(N)nc2-c2ccc(F)cc2)cc(C(F)F)n1 [Example 211, 5-(2-(difluoromethyl)-6-methylpyridin-4-yl)-4-(4-fluorophenyl)-6-((1-isopropyl-4-(methylsulfonyl)-1H-imidazol-2-yl)methoxy)pyrimidin-2-amine]
25 |  |  |  | 174 nM | 62 nM |  | Cc1cc(-c2c(OCCOc3ccnc(N(C)CCO)c3)nc(N)nc2-c2ccc(F)cc2)cc(C(F)F)n1 [Example 212, 2-((4-(2-((2-amino-5-(2-(difluoromethyl)-6-methylpyridin-4-yl)-6-(4-fluorophenyl)pyrimidin-4-yl)oxy)ethoxy)pyridin-2-yl)(methyl)amino)ethan-1-ol]
